Experimental data as given in patent EP2966448B1, “METHOD FOR THE PREDICTION OR PROGNOSIS OF THE RESPONSE OF A HUMAN SUBJECT SUFFERING FROM CANCER TO TREATMENT WITH AN ANTAGONIST OF THE NK1 RECEPTOR” (priority 2013, dated 2014).
Where two headings read alike, the source gives them in different places.

Tests used:
[1] = test system: human primary tumor cells; assay: Inhibition of primary tumor cell cultures vs amplification of the gene encoding the NK1 receptor (Example 6; tumor type per table line); format: cell-based; settings: for Percentage of inhibition of cell cultures: 100 micromolar
[2] = test system: human primary tumor cells; assay: Inhibition of primary tumor cell cultures vs absence or presence of ERK  protein (Example 3; tumor type per table line); format: cell-based; settings: for Percentage of inhibition of cell cultures: 100 micromolar
Procedure: (§1) Cell cultures. […] Briefly, small pieces of the tumors were digested into a hyaluronidase solution (Sigma-Aldrich, USA) at a concentration of 1 mg/ml during 15 minutes at 37°C, and then they were treated with 6 mg/ml of collagenase type IV (Invitrogen) during 2 hours at 37°C. Consecutively, cells were washed, and resuspended in the DMEM culture medium with high concentration of glucose (Dulbecco's Modified Eagle's Medium, Invitrogen) supplemented with 1% of antibiotics-antimycotics (Invitrogen) and with 1% of sodium pyruvate (Invitrogen), and the cells were seeded in culture slides at a concentration of 10.000 cells per square centimeter. When cells reached confluence, the adherent cells were separated using sterile trypsin at 0,5% (Invitrogen) and they were used among passages 3 and 9. For the assays shown next, tumor cells were seeded on slides at a concentration of 25.000 cells per well. A total of 6 wells containing the tumor cells were used as survival control. […] All the cultures were kept during 48 hours and later on recollected for their analysis.
Consecutively, the cells were placed in cultures in the presence of several antagonists of the NK1 receptor.
In each case it was determined the presence or absence of the downstream effector in the MAP Kinases ERK pathway.
To determine the presence of the ERK protein, it was performed a Western Blot technique, using as primary antibody: Phospho-p44/42 MAPK (Erk1/2) (Thr202/Tyr204) (D13.14.4E) XP® Rabbit mAb (4370, Cell Signalling). To determine the presence of the MEK protein, it was performed the Western Blot technique, using as primary antibody Phospho-MEK1/2 (Ser217/221) (9121, Cell Signalling).
The antibody against NK1 receptor (Table 21) was used at 1/50 concentration. The percentages of inhibition are expressed in percentages of variation in relation to control ± standard deviation.

[3] = test system: Lung carcinoma (small cell type); assay: Inhibition of primary tumor cell cultures (48 hours) vs NK1 receptor immunostaining (Example 1); format: cell-based; settings: Homo sapiens, 1 micromolar, read-out: Percentage of inhibition of cell cultures
Procedure: (§2) Cell cultures. To obtain tumor cells from human primary tumors we used the method described in De Bari et al. (De Bari et al. 2001). Briefly, small pieces of the tumors were digested into a hyaluronidase solution (Sigma-Aldrich, USA) at a concentration of 1 mg/ml during 15 minutes at 37°C, and then they were treated with 6 mg/ml of collagenase type IV (Invitrogen) during 2 hours at 37°C. Consecutively, cells were washed, and resuspended in the DMEM culture medium with high concentration of glucose (Dulbecco's Modified Eagle's Medium, Invitrogen) supplemented with 1% of antibiotics-antimycotics (Invitrogen) and with 1% of sodium pyruvate (Invitrogen), and the cells were seeded in culture slides at a concentration of 10.000 cells per square centimeter. When cells reached confluence, the adherent cells were separated using sterile trypsin at 0,5% (Invitrogen) and they were used among passages 3 and 9. For the assays shown next, tumor cells were seeded on slides at a concentration of 25.000 cells per well. A total of 6 wells containing the tumor cells were used as survival control. […] All the cultures were kept during 48 hours and later on recollected for their analysis.
(§3) Immunohistochemistry techniques. The presence of NK1 receptors was also analyzed using immunohistochemistry techniques. Briefly, a sample of each of the cultures of the cell lines used in the present invention, was centrifuged (5 minutes at 1.500 rpm) and the pellet obtained was dehydrated using increasing concentrations of ethanol and, finally, xylol. Then, said dehydrated samples were embedded in paraffin, creating a block of cells. Such paraffin blocks were cut with a microtome at 5 microns thickness, and were placed on microscope slides adequate to perform immunohistochemistry techniques. Consecutively, they were de-paraffinized by immersing them in xylol, to be finally hydrated using a solution containing decreasing concentrations of ethanol, and finally submerged them into water. […] After this, the samples were left to cool down at room temperature for 10 minutes. The endogenous peroxidase activity was blocked with 3% peroxide of hydrogen for 30 minutes at room temperature. After washing the samples with 0.05 M of Tris buffer, they were incubated with 10% non-immune pork serum at for 30 minutes at room temperature. To analyze the expression of NK1 receptors, the cellular samples were incubated in the presence of anti-NK1 antibodies (S8305, Sigma-Aldrich) diluted 1:1000, overnight at 4°C. Afterwards, the samples were washed in Tris buffer 0.05 M at room temperature. The next step was the addition of Envision System-HRP (Dako) reagents for 30 minutes at room temperature. Then, the samples were washed again in Tris buffer 0.05 M and the immunoreactivity was visualized through light microscopy with a chromogenic solution containing 3,3'-Diaminobenzidine (DAB+; Dako, USA). To differentiate the cell nuclei, they were slightly stained with hematoxylin. As negative control, it was used samples not incubated with the primary antibody anti-NK1, which was replaced by non-immune serum. All the samples were evaluated.
(§4) To value the immunostaining in each of the cases six cuts were performed to be analyzed by the immunohistochemistry technique. In each of the six cuts, it was counted cells in 20 fields (magnification 400x) using an Olympus microscope (model CX31). In each field it was counted the total number of cells and the number of cells presenting immunostaining, calculating afterwards the percentage of cells which presented immunostaining.

Endometrium carcinoma = assay: cells; settings: Homo sapiens, 1 micromolar
Procedure: as §2, §3, §4

[4] = test system: Thyroid carcinoma (follicular carcinoma); assay: Inhibition of primary tumor cell cultures vs Kras mutation (Example 2); format: cell-based, human; settings: Homo sapiens, 100 micromolar, read-out: Percentage of inhibition of cell cultures
Procedure: (§5) To obtain tumor cells from human primary tumors we used the method described in De Bari et al. (De Bari et al. 2001). Briefly, small pieces of the tumors were digested into a hyaluronidase solution (Sigma-Aldrich, USA) at a concentration of 1 mg/ml during 15 minutes at 37°C, and then they were treated with 6 mg/ml of collagenase type IV (Invitrogen) during 2 hours at 37°C. Consecutively, cells were washed, and resuspended in the DMEM culture medium with high concentration of glucose (Dulbecco's Modified Eagle's Medium, Invitrogen) supplemented with 1% of antibiotics-antimycotics (Invitrogen) and with 1% of sodium pyruvate (Invitrogen), and the cells were seeded in culture slides at a concentration of 10.000 cells per square centimeter. When cells reached confluence, the adherent cells were separated using sterile trypsin at 0,5% (Invitrogen) and they were used among passages 3 and 9. For the assays shown next, tumor cells were seeded on slides at a concentration of 25.000 cells per well. A total of 6 wells containing the tumor cells were used as survival control. […] All the cultures were kept during 48 hours and later on recollected for their analysis.
(§6) In each case the presence or not of mutations in K-ras gene was determined.
(§7) To determine the existence of mutations in the K-ras gene DNA from cancer tumor cells was extracted from samples obtained from the different cancer tumor cells, using DNA extraction kits from Takara (Madison, WI, US) or Ambion (Huntingdon, Cambridgeshire, United Kingdom), following the manufacturer's instructions, and as it has been previously published (Di Fiore F, et al. 2007). Consecutively it was analyzed by sequencing the exon 2 of the KRAS gene, , by means of PCR amplification from previously extracted cancer tumor DNA, using the following sense primer (SEQ ID NO. 15): 5'-[sequence]-3' and anti-sense primer (SEQ ID NO. 16): 5'-[sequence]-3'. After the purification using the Qiagen extraction kit, the PCR products were sequenced using the Big Dye Terminator Kit V3.1 (Applied Biosystems, Foster City, CA, U.S.) and an ABI Prism 377 or 3100 DNA sequencer (Applied Biosystems). The presence of a heterozygous mutation in the KRAS gene in cancer tumor cells of the cultures was defined as the appearance of a mutant peak of a height of at least a third of the wild type. All the sequence analysis were executed at least twice in two independent PCR.
(§8) The antibody against NK1 receptor (Table 16) was used at 1/50 concentration. The percentages of inhibition are expressed in percentage of variation in relation to control ± standard deviation.

[5] = test system: Pancreatic carcinoma (Adenocarcinoma); assay: as above; format: cell-based, human; settings: Homo sapiens, 100 micromolar, read-out: Percentage of inhibition of cell cultures
Procedure: as §1, §6, §7, §8

[6] = test system: Non Hodgkin Lymphoma T (diffuse T cell lymphoma); assay: as above; format: cell-based, human; settings: Homo sapiens, T-cell, 100 micromolar, read-out: Percentage of inhibition of cell cultures
Procedure: as §2, §6, §7
The percentages of inhibition are expressed in percentage of variation in relation to control ± standard deviation.

[7] = test system: Lung carcinoma (non small cell lung carcinoma); assay: as above; format: cell-based, human; settings: Homo sapiens, 100 micromolar, read-out: Percentage of inhibition of cell cultures
Procedure: as §5, §6, §7, §8

Fibrosarcoma = assay: Inhibition of primary tumor cell cultures (48 hours) vs NK1 receptor immunostaining (Example 1); format: cell-based; settings: Homo sapiens, 1 micromolar, read-out: Percentage of inhibition of cell cultures
Procedure: as §2, §3, §4

Burkitt Lymphoma = assay: as above; format: cell-based; settings: Homo sapiens, 1 micromolar, read-out: Percentage of inhibition of cell cultures
Procedure: as §2, §3, §4

[8] = NK1 receptor immunostaining Group 1 (less than 20% of the cells)
[9] = NK1 receptor immunostaining Group 2 (20-80% of the cells)
[10] = NK1 receptor immunostaining Group 3 (more than 80% of the cells)
[11] = NK1 receptor immunostaining Intensity grade 1
[12] = NK1 receptor immunostaining Intensity grade 2
[13] = NK1 receptor immunostaining Intensity grade 3
[14] = Cases with Kras non-mutated (wild type)

SMILES: CC(=O)N1CCN([C@H]2CCN(C(=O)N(C)[C@H](C)c3cc(C(F)(F)F)cc(C(F)(F)F)c3)[C@@H](c3ccc(F)cc3C)C2)CC1 [Casopitant]
- Percentage of inhibition of cell cultures ([1]; Undifferentiated Pleomorphic Sarcoma (malignant fibrous histiocytoma grade 3), Cases with amplification of the gene that encodes for the NK1 receptor): 96±6 percentage
- Percentage of inhibition of cell cultures ([1]; Undifferentiated Pleomorphic Sarcoma (malignant fibrous histiocytoma grade 3), Cases without amplification of the gene that encodes for the NK1 receptor): 25±7 percentage
- Percentage of inhibition of cell cultures ([1]; Urinary bladder carcinoma (transitional cell carcinoma), Cases with amplification of the gene that encodes for the NK1 receptor): 97±3 percentage
- Percentage of inhibition of cell cultures ([1]; Urinary bladder carcinoma (transitional cell carcinoma), Cases without amplification of the gene that encodes for the NK1 receptor): 26±4 percentage
- inhibition of cell proliferation ([1]; cancer cell cultures which show amplification in the genomic region encoding the NK1 receptor, compared, non-peptidic antagonists 100 micromolar, antibody 1/50): higher inhibition
- Percentage of inhibition of cell cultures ([2]; Breast carcinoma (ductal adenocarcinoma), cases with presence of ERK): 93±4 percentage
- Percentage of inhibition of cell cultures ([2]; Breast carcinoma (ductal adenocarcinoma), cases without presence of ERK): 26±4 percentage
- Percentage of inhibition of cell cultures ([2]; Burkitt Lymphoma, cases with presence of ERK): 97±5 percentage
- Percentage of inhibition of cell cultures ([2]; Burkitt Lymphoma, cases without presence of ERK): 28±6 percentage
- Percentage of inhibition of cell cultures ([2]; Carcinoma of the uterine cervix (Squamous cell carcinoma), cases with presence of ERK): 93±4 percentage
- Percentage of inhibition of cell cultures ([2]; Carcinoma of the uterine cervix (Squamous cell carcinoma), cases without presence of ERK): 28±3 percentage
- Percentage of inhibition of cell cultures ([2]; Colon carcinoma (Adenocarcinoma), cases with presence of ERK): 95±3 percentage
- Percentage of inhibition of cell cultures ([2]; Colon carcinoma (Adenocarcinoma), cases without presence of ERK): 24±3 percentage
- Percentage of inhibition of cell cultures ([2]; Endometrium carcinoma, cases with presence of ERK): 93±5 percentage
- Percentage of inhibition of cell cultures ([2]; Endometrium carcinoma, cases without presence of ERK): 29±2 percentage
- Percentage of inhibition of cell cultures ([2]; Gastric carcinoma (Adenocarcinoma), cases with presence of ERK): 96±4 percentage
- Percentage of inhibition of cell cultures ([2]; Gastric carcinoma (Adenocarcinoma), cases without presence of ERK): 25±6 percentage
- Percentage of inhibition of cell cultures ([2]; Glioma (astrocytoma), cases with presence of ERK): 93±4 percentage
- Percentage of inhibition of cell cultures ([2]; Glioma (astrocytoma), cases without presence of ERK): 28±3 percentage
- Percentage of inhibition of cell cultures ([2]; Lung carcinoma (non small cell lung carcinoma), cases with presence of ERK): 95±7 percentage
- Percentage of inhibition of cell cultures ([2]; Lung carcinoma (non small cell lung carcinoma), cases without presence of ERK): 27±5 percentage
- Percentage of inhibition of cell cultures ([2]; Lung carcinoma (small cell lung carcinoma), cases with presence of ERK): 94±5 percentage
- Percentage of inhibition of cell cultures ([2]; Lung carcinoma (small cell lung carcinoma), cases without presence of ERK): 29±4 percentage
- Percentage of inhibition of cell cultures ([2]; Melanoma (Nodular Melanoma), cases with presence of ERK): 96±5 percentage
- Percentage of inhibition of cell cultures ([2]; Melanoma (Nodular Melanoma), cases without presence of ERK): 27±5 percentage
- Percentage of inhibition of cell cultures ([2]; Non Hodgkin Lymphoma B (diffuse B cell lymphoma), cases with presence of ERK): 97±5 percentage
- Percentage of inhibition of cell cultures ([2]; Non Hodgkin Lymphoma B (diffuse B cell lymphoma), cases without presence of ERK): 28±4 percentage
- Percentage of inhibition of cell cultures ([2]; Non Hodgkin Lymphoma T (diffuse T cell lymphoma), cases with presence of ERK): 98±4 percentage
- Percentage of inhibition of cell cultures ([2]; Non Hodgkin Lymphoma T (diffuse T cell lymphoma), cases without presence of ERK): 29±5 percentage
- Percentage of inhibition of cell cultures ([2]; Ovarian carcinoma (Adenocarcinoma), cases with presence of ERK): 92±6 percentage
- Percentage of inhibition of cell cultures ([2]; Ovarian carcinoma (Adenocarcinoma), cases without presence of ERK): 28±5 percentage
- Percentage of inhibition of cell cultures ([2]; Pancreatic carcinoma (Adenocarcinoma), cases with presence of ERK): 94±2 percentage
- Percentage of inhibition of cell cultures ([2]; Pancreatic carcinoma (Adenocarcinoma), cases without presence of ERK): 23±4 percentage
- Percentage of inhibition of cell cultures ([2]; Prostate carcinoma, cases with presence of ERK): 94±5 percentage
- Percentage of inhibition of cell cultures ([2]; Prostate carcinoma, cases without presence of ERK): 27±4 percentage
- Percentage of inhibition of cell cultures ([2]; Renal cell carcinoma (clear cell renal cell carcinoma), cases with presence of ERK): 94±3 percentage
- Percentage of inhibition of cell cultures ([2]; Renal cell carcinoma (clear cell renal cell carcinoma), cases without presence of ERK): 27±3 percentage
- Percentage of inhibition of cell cultures ([2]; Thyroid carcinoma (follicular carcinoma), cases with presence of ERK): 96±6 percentage
- Percentage of inhibition of cell cultures ([2]; Thyroid carcinoma (follicular carcinoma), cases without presence of ERK): 26±4 percentage
- Percentage of inhibition of cell cultures ([2]; Thyroid carcinoma (papillary carcinoma), cases with presence of ERK): 97±4 percentage
- Percentage of inhibition of cell cultures ([2]; Thyroid carcinoma (papillary carcinoma), cases without presence of ERK): 28±3 percentage
- Percentage of inhibition of cell cultures ([2]; Undifferentiated Pleomorphic Sarcoma (malignant fibrous histiocytoma grade 3), cases with presence of ERK): 95±3 percentage
- Percentage of inhibition of cell cultures ([2]; Undifferentiated Pleomorphic Sarcoma (malignant fibrous histiocytoma grade 3), cases without presence of ERK): 26±4 percentage
- Percentage of inhibition of cell cultures ([2]; Urinary bladder carcinoma (transitional cell carcinoma), cases with presence of ERK): 98±2 percentage
- Percentage of inhibition of cell cultures ([2]; Urinary bladder carcinoma (transitional cell carcinoma), cases without presence of ERK): 29±4 percentage
- inhibition of cell proliferation ([2]; cancer cell cultures that show more presence of ERK, compared, non-peptidic antagonists 100 micromolar, antibody 1/50): higher inhibition
- inhibition at 1 µM [3, 8]: 12 ± 2%
- inhibition at 1 µM [3, 9]: 45 ± 2%
- inhibition at 1 µM [3, 10]: 93 ± 4%
- inhibition at 1 µM [3, 11]: 33 ± 2%
- inhibition at 1 µM [3, 12]: 55 ± 3%
- inhibition at 1 µM [3, 13]: 94 ± 4%
- inhibition at 1 µM (Endometrium carcinoma; read-out: Percentage of inhibition of cell cultures, NK1 receptor immunostaining Group 1 (less than 20% of the cells)): 16 ± 3%
- inhibition at 1 µM (Endometrium carcinoma; read-out: Percentage of inhibition of cell cultures, NK1 receptor immunostaining Group 2 (20-80% of the cells)): 46 ± 3%
- inhibition at 1 µM (Endometrium carcinoma; read-out: Percentage of inhibition of cell cultures, NK1 receptor immunostaining Group 3 (more than 80% of the cells)): 92 ± 3%
- inhibition at 1 µM (Endometrium carcinoma; read-out: Percentage of inhibition of cell cultures, NK1 receptor immunostaining Intensity grade 1): 34 ± 5%
- inhibition at 1 µM (Endometrium carcinoma; read-out: Percentage of inhibition of cell cultures, NK1 receptor immunostaining Intensity grade 2): 55 ± 5%
- inhibition at 1 µM (Endometrium carcinoma; read-out: Percentage of inhibition of cell cultures, NK1 receptor immunostaining Intensity grade 3): 94 ± 4%
- inhibition at 100 µM ([4]; Cases with Kras mutated): 26 ± 4%
- inhibition at 100 µM [4, 14]: 96 ± 4%
- inhibition at 100 µM ([5]; Cases with Kras mutated): 27 ± 3%
- inhibition at 100 µM [5, 14]: 93 ± 4%
- inhibition at 100 µM ([6]; Cases with Kras mutated): 26 ± 4%
- inhibition at 100 µM [6, 14]: 96 ± 5%
- inhibition at 100 µM ([7]; Cases with Kras mutated): 25 ± 5%
- inhibition at 100 µM [7, 14]: 95 ± 5%
- inhibition at 1 µM (Fibrosarcoma; [8]): 15 ± 2%
- inhibition at 1 µM (Fibrosarcoma; [9]): 47 ± 5%
- inhibition at 1 µM (Fibrosarcoma; [10]): 93 ± 4%
- inhibition at 1 µM (Fibrosarcoma; [11]): 35 ± 6%
- inhibition at 1 µM (Fibrosarcoma; [12]): 55 ± 3%
- inhibition at 1 µM (Fibrosarcoma; [13]): 92 ± 4%
- inhibition at 1 µM (Burkitt Lymphoma; [8]): 15 ± 3%
- inhibition at 1 µM (Burkitt Lymphoma; [9]): 46 ± 5%
- inhibition at 1 µM (Burkitt Lymphoma; [10]): 94 ± 5%
- inhibition at 1 µM (Burkitt Lymphoma; [11]): 37 ± 5%
- inhibition at 1 µM (Burkitt Lymphoma; [12]): 55 ± 3%
- inhibition at 1 µM (Burkitt Lymphoma; [13]): 93 ± 3%
